Experimental data as given in patent publication US6534495B1, “Serine protease inhibitors” (Akzo Nebel, priority 1997, dated 2003).

biological target: T1, Human thrombin (Homo sapiens, UniProt P00734); assay: Anti-thrombin assay (hydrolysis of chromogenic substrate S-2238); assay type: biochemical; settings: S-2238, TNP buffer, 37° C., read-out: IC50, antithrombin activity
T1 construct: purchased Centraal Laboratorium voor Bloedtransfusie, Amsterdam, The Netherlands
Protocol: Thrombin (Factor […]) is a factor in the coagulation cascade.
The anti-thrombin activity of compounds of the present invention was assessed by measuring spectrophotometrically the rate of hydrolysis of the chromogenic substrate s-2238 exterted by thrombin. This assay for anti-thrombin activity in a buffer system was used to assess the IC50-value of a test compound.
Test medium: Tromethamine-NaCl-polyethylene glycol 6000 (TNP) buffer
Reference compound: 12581 (Kabi)
Solubilisation can be assisted with dimethylsulfoxide, methanol, ethanol, acetonitrile or tert.-butyl alcohol which are without adverse effects in concentrations up to 2.5% in the final reaction mixture.
1. Tromethamine-NaCl (TN) buffer
Composition of the buffer:
The pH of the solution is adjusted to 7.4 at 37° C. with HCl (10 mmol.l^−1).
Polyethylene glycol 6000 is dissolved in TN buffer to give a concentration of 3 g.l^−1.
One vial S-2238 (25 mg; Kabi Diagnostica, Sweden) is dissolved in 20 ml TN buffer to give a concentration of 1.25 mg.ml^−1 (2 mmol.l^−1).
Human thrombin (16 000 nKat.vial^−1; Centraal Laboratorium voor Bloedtransfusie, Amsterdam, The Netherlands) is dissolved in TNP buffer to give a stock solution of 835 nKat.ml^−1.
Immediately before use this solution is diluted with TNP buffer to give a concentration of 3.34 nKat.ml^−1.
All ingredients used are of analytical grade
For aqueous solutions ultrapure water (Milli-Q quality) is used.
Preparation of Test and Reference Compound Solutions
The test and reference compounds are dissolved in Milli-Q water to give stock concentrations of 10^−2 mol.l^−1. Each concentration is stepwise diluted with the vehicle to give concentrations of […], 10^−4 and 10^−5 mol.l^−1. The dilutions, including the stock solution, are used in the assay (final concentrations in the reaction mixture: 3·10^−3; 10^−3; 3·10^−4; 10^−4; 3·10^−5; 10^−5, 3·10^−6 and 10^−6 mol.l^−1, respectively).
At room temperature 0.075 ml and 0.025 ml test compound or reference compound solutions or vehicle are alternately pipetted into the wells of a microtiter plate and these solutions are diluted with 0.115 ml and 0.0165 ml TNP buffer, respectively. […] Starting after 1 min of incubation, the absorbance of each sample at 405 nm is measured every 2 min. for a period of 90 min. using a kinetic microtiter plate reader (Twinreader plus, Flow Laboratories).
All data are collected in an IBM personal computer using LOTUS-MEASURE. For each compound concentration (expressed in mol.l^−1 reaction mixture) and for the blank the absorbance is plotted versus the reaction time in min.
Evaluation of responses: For each final concentration the maximum absorbance was calculated from the assay plot. […]

| IC50 [nM] | Structure (SMILES) |
| --- | --- |
| 20 | CC(C)OC(=O)C(=O)C(CCCCN)NC(=O)C1CCCN1C(=O)C(NS(=O)(=O)Cc1ccccc1)C(c1ccccc1)c1ccccc1 [Example 40, BzlSO2-D-Dpa-Pro-LysΨ[COCO]—O-iPropyl] |
| 90 | NCCCCC(NC(=O)CN1CCCCC(NS(=O)(=O)Cc2ccccc2)C1=O)C(=O)C(N)=O (stereo not drawn) [Example 4, BzlSO2-norLeu(cyclo)-Gly-LysΨ[COCO]—NH2] |
| 110 | CCS(=O)(=O)NC(Cc1ccc(OC)cc1)C(=O)N1CCCC1C(=O)NC(CCCCN)C(=O)C(=O)N1CCC1 [Example 38, EtSO2-D-Tyr(Me)-Pro -LysΨ[COCO]-Azetidine] |
| 10 | CC(C)OC(=O)C(=O)C(CCCCN)NC(=O)C1CCCN1C(=O)C(CC1CCCCC1)NS(=O)(=O)CC12CCC(CC1=O)C2(C)C [Example 24, (10-Camphor)SO2-D-Cha-Pro-LysΨ[COCO]—O-iPropyl] |

biological target: T2, Bovine Factor Xa Human (Bos taurus, UniProt P00743); assay: Anti-factor Xa assay (hydrolysis of chromogenic substrate S-2222); assay type: biochemical; settings: S-2222, TNP buffer, 37° C.
T2 construct: purchased Kabi Diagnostica
T2 sequence (P00743 234-492 limits assumed): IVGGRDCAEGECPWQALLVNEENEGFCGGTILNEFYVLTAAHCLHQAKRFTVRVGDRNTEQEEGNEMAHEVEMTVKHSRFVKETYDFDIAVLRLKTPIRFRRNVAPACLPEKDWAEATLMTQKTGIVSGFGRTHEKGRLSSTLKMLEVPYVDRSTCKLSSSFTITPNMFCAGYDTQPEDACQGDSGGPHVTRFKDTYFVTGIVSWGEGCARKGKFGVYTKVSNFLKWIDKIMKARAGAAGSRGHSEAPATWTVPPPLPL
T2 sequence (P00743 41-180 limits assumed): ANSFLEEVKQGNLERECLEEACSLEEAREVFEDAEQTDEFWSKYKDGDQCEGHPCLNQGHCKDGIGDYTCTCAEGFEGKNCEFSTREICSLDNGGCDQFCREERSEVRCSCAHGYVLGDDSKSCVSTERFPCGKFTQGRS
Protocol: Activated Factor X (Xa) is a factor in the coagulation cascade. The anti-Xa activity of compounds of the present invention was assessed by measuring spectrophotometrically the rate of hydrolysis of the chromogenic substrate s-2222 exterted by Xa. This assay for anti-Xa activity in a buffer system was used to assess the IC50-value of the test compound.
In general the followed procedure and test conditions were analogous to those of the anti-thrombin assay as described above. Differences are indicated below.
Reference compound: benzamidine
Solubilisation can be assisted with dimethylsulfoxide, methanol, ethanol, acetonitrile or tert.-butyl alcohol which are without adverse effects in concentrations up to 1% (for DMSO) and 2.5% (for the other solvents) in the final reaction mixture.
One vial S-2222 (15 mg; Kabi Diagnostica, Sweden) is dissolved in 10 ml water to give a concentration of 1.5 mg.ml^−1 (2 mmol.l^−1).
Bovine Factor Xa Human (71 nKat.vial^−1, Kabi Diagnostica) is dissolved in 10 ml TNP buffer and then further diluted with 30 ml TNP buffer to give a concentration of 1.77 nKat.ml^−1. The dilution has to be freshly prepared.
Instead of the S-2238 solution (in anti-thrombin assay), the above S-2222 solution is added to each well in this assay.

| IC50 [nM] | Structure (SMILES) |
| --- | --- |
| 20 | CC(C)OC(=O)C(=O)C(CCCCN)NC(=O)C1CCCN1C(=O)C(CC1CCCCC1)NS(=O)(=O)Cc1ccccc1 [Example 28, BenzylSO2-D-Cha-Pro-LysΨ[COCO]—O-iPropyl] |
| 280 | CCOC(=O)C(=O)C(CCCCN)NC(=O)C1CCCN1C(=O)C(CC1CCCCC1)NS(=O)(=O)CC [Example 5, EthylSO2-D-Cha-Pro-LysTr[COCO]-OEt] |
| 640 | NCCCCC(NC(=O)CN1CCCCC(NS(=O)(=O)Cc2ccccc2)C1=O)C(=O)C(=O)NCc1ccccc1 (stereo not drawn) [Example 1, BzlSO2-norLeu(cyclo)-Gly-LysΨ[COCO]-NHBzl] |

biological target: T3, recombinant human factor VIIa / recombinant human Tissue Factor complex (Homo sapiens, UniProt P08709); assay: Anti factor VIIa/tissue factor assay (amidolysis of Pefachrome VIIa); assay type: biochemical; settings: reference compound; 50% inhibition of the amidolytic reaction at 90 min
T3 construct: purchased American Diagnostica Inc, Greenwich, Conn
T3 sequence (P08709 213-466 limits assumed): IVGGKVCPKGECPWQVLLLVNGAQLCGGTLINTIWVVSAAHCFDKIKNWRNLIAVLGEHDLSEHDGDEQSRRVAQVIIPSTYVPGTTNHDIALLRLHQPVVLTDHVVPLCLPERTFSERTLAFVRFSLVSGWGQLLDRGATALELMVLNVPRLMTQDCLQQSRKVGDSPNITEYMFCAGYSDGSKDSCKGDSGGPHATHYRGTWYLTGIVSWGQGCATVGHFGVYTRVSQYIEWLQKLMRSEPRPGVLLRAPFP
T3 sequence (P08709 61-212 limits assumed): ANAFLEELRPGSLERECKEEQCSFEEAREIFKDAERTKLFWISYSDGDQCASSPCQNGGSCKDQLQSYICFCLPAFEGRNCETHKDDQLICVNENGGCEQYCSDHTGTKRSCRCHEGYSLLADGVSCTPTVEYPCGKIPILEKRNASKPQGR
T3 sequence (P13726 33-295 partner): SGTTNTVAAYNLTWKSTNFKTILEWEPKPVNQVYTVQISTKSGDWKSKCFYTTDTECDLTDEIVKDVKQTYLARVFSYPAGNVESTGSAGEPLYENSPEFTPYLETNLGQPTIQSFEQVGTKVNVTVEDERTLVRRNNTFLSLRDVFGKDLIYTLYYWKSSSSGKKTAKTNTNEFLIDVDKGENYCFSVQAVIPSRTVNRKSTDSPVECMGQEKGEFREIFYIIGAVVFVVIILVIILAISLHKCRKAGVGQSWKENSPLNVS
Excerpt: III. Anti Factor VIIa/Tissue Factor Assay
Vascular damage initiates a series of enzyme generation reactions ultimately leading to the formation of a fibrin gel at the site of the injury. The primary enzyme generation reaction is the generation of activated factor VII (VIIa) from proenzyme factor VII. This activation reaction takes place by an as yet unknown mechanism. […] The activated Factor VII then also binds to membrane-bound TF and this […] tenase complex next converts Factor X into Factor Xa.
Thrombosis develops when there is insufficient control of the coagulation reaction. One way to restore this control is by inhibiting essential coagulation enzymes such as for instance the complex of membrane-bound TF and Factor VIIa. […] A method is described by which the inhibitory potency of compounds towards VIIa/TF complex can be established. Test compounds are mixed at various concentrations with factor VIIa and TF and with a chromogenic substrate, which is known to be split far better by TF-bound VIIa than by free VIIa. The amidolytic reaction taking place is continuously monitored in a microtiter plate reader. Inhibitory potency of the compounds investigated is expressed by the IC50, defined as the concentration of compounds yielding 50% inhibition of the amidolytic reaction, ninety minutes after the start of the reaction.
A ten times concentrated Hepes buffer made by dissolving 29.40 g CaCl2.2H2O, 47.66 g Hepes, 87.66 g NaCl and 30.00 g polyethyleneglycol (PEG) MW=6000 in 1000 ml aqua bidest. After the solution has been heated to 37° C., the pH of the buffer is set on 7.40 with help of 10 molar NaOH. The concentrated buffer solution is stored at 4° C. and is stable for at least two months at this condition. Prior to use the buffer is diluted in aqua bidest. 1 to 8 to obtain a final concentration in the wells (See test procedure) of 20 mM CaCl2, 20 mM Hepes, 150 mM NaCl and 0.3% PEG6000. If compounds are dissolved and diluted in aqua bidest. or another vehicle because of an insufficient solubility the Hepes buffer can be diluted 1 to 6 to preserve the same ionic strength in the test.
Recombinant Human Factor VIIa
Recombinant human factor VIIa is obtained from American Diagnostica Inc, Greenwich, Conn. Each vial contains 1.2 mg recombinant human factor VIIa, which is lyophilized from 2 ml buffer composed of 10 mM glycylglycine, 50 mM NaCl, 10 mM CaCl2, 30 mg/ml mannitol, 0.1% Tween, pH 5.5. The contents of each of these vials is reconstituted with 2 ml aqua bidest. as indicated by the manufacturer. The 2 ml 1.2*10^−5 stock solution thus obtained is divided in smaller fractions, which are stored at −30° C. At this condition these VIIa samples are stable for at least 6 months.
Recombinant Human Tissue Factor
Recombinant human Tissue Factor is obtained from American Diagnostica Inc, Greenwich, Conn. Each vial contains 25 μg recombinant human Tissue Factor (non-lipidated, MW 35000 Dalton), which is lyophilized from 1 ml Tris/HCl buffer (pH 8.0) composed of 150 mM NaCl, 200 mM mannitol and 10 mM CHAPS (Steroid derivative used to solubilize membrane proteins; see Merck Index). The contents of each vial is reconstituted with 1 ml aqua bidest. as indicated by the manufacturer. The 1 ml 7.14×10^−7 M stock solution thus obtained is divided in smaller fractions, which are stored at −30° C. Thus stored these VIIa samples are stable for at least 67 months. […]

| IC50 [nM] | Structure (SMILES) |
| --- | --- |
| 300 | NC(N)=NCCC[C@H](NC(=O)[C@@H]1CCCN1C(=O)[C@H](N)Cc1ccccc1)C(=O)CCl [Org 34593, reference compound] |

same assay, conditions: single point, at a concentration of 1×10^−5 M

| percentage inhibition, anti factor VIIa/tissue factor activity [%] | Structure (SMILES) |
| --- | --- |
| 91 | CCS(=O)(=O)N1Cc2ccccc2C[C@@H]1C(=O)N[C@@H](Cc1ccccc1)C(=O)N[C@@H](CCCCN)C(=O)C(=O)OC(C)C [EtSO2-D-3-Tiq-Phe-LysΨ[COCO]-O-iPropyl] |
| 56 | CCS(=O)(=O)N[C@@H](CC(N)=O)C(=O)N[C@@H](CC(C)C)C(=O)N[C@@H](CCCCN)C(=O)C(=O)OC(C)C [EtSO2-Asn-Leu-LysΨ[COCO]-O-iPropyl] |
| 94 | CCS(=O)(=O)N[C@H](CC(C)C)C(=O)N[C@@H](CCC(N)=O)C(=O)N[C@@H](CCCCN)C(=O)C(=O)OC(C)C [EtSO2-D-Leu-Gln-LysΨ[COCO]-O-iPropyl] |
| 98 | CCS(=O)(=O)N[C@H](Cc1ccccc1)C(=O)N[C@@H](CC(C)C)C(=O)N[C@@H](CCCCN)C(=O)C(=O)OC(C)C [EtSO2-D-Phe-Leu-LysΨ[COCO]-O-iPropyl] |
